The source of these data is PMC4741387 (Biochemistry, 2015).

Residue numbers refer to the chain shown, from its start.

What all share (assay): fluorescence titration of rhodamine-labelled protein
The target of experiment [1] is T1, rho-PBP: (A17C,A197C)PBP labeled with 6-IATR (PstS phosphate binding protein) (Escherichia coli, UniProt P0AG82, A222C/A42C/G165A).
T1 sequence (P0AG82 26-346 A42C/G165A/A222C): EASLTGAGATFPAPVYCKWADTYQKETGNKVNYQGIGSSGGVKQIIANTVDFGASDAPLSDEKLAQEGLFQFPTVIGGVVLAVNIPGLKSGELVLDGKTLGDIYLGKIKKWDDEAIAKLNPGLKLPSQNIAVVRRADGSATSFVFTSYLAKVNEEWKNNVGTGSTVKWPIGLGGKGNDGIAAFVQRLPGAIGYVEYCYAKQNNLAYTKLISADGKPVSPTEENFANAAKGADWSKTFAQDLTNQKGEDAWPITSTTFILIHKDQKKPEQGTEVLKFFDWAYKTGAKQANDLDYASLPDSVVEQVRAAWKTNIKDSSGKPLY

For experiment [2], the target named is T2, rho-PBP: (A17C,A197C)PBP labeled with 6-IATR (PstS phosphate binding protein) (Escherichia coli, UniProt P0AG82, A222C/A42C/R160A).
T2 sequence (P0AG82 26-346 A42C/R160A/A222C): T1 sequence (P0AG82 26-346 A42C/G165A/A222C) with R135A, A140G

Experiment [3] concerns the target T3, rho-PBP: (A17C,A197C)PBP labeled with 6-IATR (PstS phosphate binding protein) (Escherichia coli, UniProt P0AG82, A222C/A42C/S63A).
T3 sequence (P0AG82 26-346 A42C/S63A/A222C): T1 sequence (P0AG82 26-346 A42C/G165A/A222C) with S38A, A140G

In experiment [4] the target is T4, (K229C,E302C)PBP labeled with 6-IATR (PstS phosphate binding protein) (Escherichia coli, UniProt P0AG82, E327C/G165A/K254C).
T4 sequence (P0AG82 26-346 G165A/K254C/E327C): T1 sequence (P0AG82 26-346 A42C/G165A/A222C) with C17A, C197A, K229C, E302C

For experiment [5], the target named is T5, rho-PBP: (A17C,A197C)PBP labeled with 6-IATR (PstS phosphate binding protein) (Escherichia coli, UniProt P0AG82, A222C/A42C/T35A).
T5 sequence (P0AG82 26-346 T35A/A42C/A222C): T1 sequence (P0AG82 26-346 A42C/G165A/A222C) with T10A, A140G

For experiment [6], the target named is T6, rho-PBP: (A17C,A197C)PBP labeled with 6-IATR (PstS phosphate binding protein) (Escherichia coli, UniProt P0AG82, A222C/A42C/G165A/S189K/S64D).
T6 sequence (P0AG82 26-346 A42C/S64D/G165A/S189K/A222C): T1 sequence (P0AG82 26-346 A42C/G165A/A222C) with S39D, S164K

With `O=P(O)(O)O` [inorganic phosphate], the Kd in experiment [1] was 70 ± 17 µM; in experiment [2], less than 1 µM; in experiment [3] it was 68 ± 9 µM; in experiment [4], 220 ± 11 µM; in experiment [5] it was 32 ± 2 µM; in experiment [6], 40 ± 4 µM.

The Kd is the equilibrium constant for the complex coming apart. Read a low Kd as tighter binding.
